Measured values reported in US20070219212A1, “Pyranouidole Derivatives and the Use Thereof for the Treatment of Hepatitis C Virus Infection or Disease” (priority 2004, published 2007).
Like-named read-outs stand apart in the source and are kept apart here.

Legend:
[1] = target: T1, NS5B from the BK strain (genotype 1b) (Hepatitis C virus genotype 1b, UniProt P26663); assay: Hepatitis C polymerase (NS5B, BK strain) inhibition, radioactive filter assay; assay type: biochemical; conditions: NS5B BK strain (genotype 1b)
T1 construct: NS5B from the BK strain (genotype 1b) is expressed in E coli as a protein in which the 21 C-terminal amino acids are replaced; made in house; host or cells: E. coli
T1 sequence (P26663 2420-2989): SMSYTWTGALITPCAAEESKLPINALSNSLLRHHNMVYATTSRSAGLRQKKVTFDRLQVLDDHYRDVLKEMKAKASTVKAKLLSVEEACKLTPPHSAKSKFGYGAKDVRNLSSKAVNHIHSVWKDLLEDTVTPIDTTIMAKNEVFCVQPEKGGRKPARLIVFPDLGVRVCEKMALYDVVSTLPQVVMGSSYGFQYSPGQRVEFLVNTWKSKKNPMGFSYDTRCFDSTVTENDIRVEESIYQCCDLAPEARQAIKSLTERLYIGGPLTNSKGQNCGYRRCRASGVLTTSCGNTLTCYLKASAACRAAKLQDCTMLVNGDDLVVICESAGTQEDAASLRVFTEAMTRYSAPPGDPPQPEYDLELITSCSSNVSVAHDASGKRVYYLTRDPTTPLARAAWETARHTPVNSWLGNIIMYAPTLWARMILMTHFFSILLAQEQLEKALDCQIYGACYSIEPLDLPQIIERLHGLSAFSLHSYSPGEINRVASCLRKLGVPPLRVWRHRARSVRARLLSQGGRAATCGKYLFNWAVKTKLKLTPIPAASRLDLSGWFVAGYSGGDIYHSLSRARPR
Procedure, shortened: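 E. coli-expressed C-terminally truncated His-tagged NS5B preincubated 15 min with compound at room temperature, then run 2 h at 22-25 °C on a hairpin-primed heteropolymeric RNA template (~3 nM) with radioactive nucleotides. EDTA stop; ~760 nt 33P product captured on filters, washed with phosphate buffer pH 7.0, scintillation counted.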

[2] = target: BB7 RNA-dependent RNA polymerase hepatitis C virus protein (Con1 HCV sequence) (Hepatitis C virus genotype 1b, UniProt Q9WMX2); assay: Hepatitis C polymerase (BB7) inhibition; assay type: biochemical
Sequence of BB7 RNA-dependent RNA polymerase hepatitis C virus protein (Con1 HCV sequence) (Q9WMX2 2420-3010): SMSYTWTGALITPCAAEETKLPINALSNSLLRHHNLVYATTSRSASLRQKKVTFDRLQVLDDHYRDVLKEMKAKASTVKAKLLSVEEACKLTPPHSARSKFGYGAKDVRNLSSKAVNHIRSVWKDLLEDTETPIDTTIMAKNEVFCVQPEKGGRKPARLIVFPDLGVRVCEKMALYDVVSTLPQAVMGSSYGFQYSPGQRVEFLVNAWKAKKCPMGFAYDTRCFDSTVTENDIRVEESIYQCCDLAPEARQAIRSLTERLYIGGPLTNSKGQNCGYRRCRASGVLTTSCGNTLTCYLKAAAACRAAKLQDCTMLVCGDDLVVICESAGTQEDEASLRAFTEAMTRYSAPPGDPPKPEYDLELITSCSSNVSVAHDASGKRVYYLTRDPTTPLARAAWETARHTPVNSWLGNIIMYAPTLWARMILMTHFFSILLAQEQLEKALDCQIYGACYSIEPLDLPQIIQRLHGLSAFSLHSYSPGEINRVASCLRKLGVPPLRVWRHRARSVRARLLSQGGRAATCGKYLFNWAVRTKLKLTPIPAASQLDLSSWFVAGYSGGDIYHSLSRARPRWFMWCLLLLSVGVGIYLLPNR
Procedure, shortened: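 Con1 (BB7) replicon-derived NS5B polymerase preincubated with compound (15% DMSO) 15 min at room temperature, then RNA template (~3 nM pOF) and nucleotides added. Reaction run 2 h at 22-25° C., stopped with EDTA (85 mM final). ^33P-labelled product captured on filters, washed with 0.5 M sodium phosphate pH 7.0, scintillation counted.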

[3] = BB7 (Con1) NS5B, read-out: BB7 IC50

Row | Compound | IC50 [1] [nM] | IC50 [2] [nM] | IC50 ([2]; read-out: BB7 IC50, BB7 (Con1) NS5B) [nM] | IC50 [2, 3] [nM]
1 | CCCC1(CC(=O)O)OCCc2c1[nH]c1c(C)c(OCc3ccnc(NS(C)(=O)=O)c3)cc(C#N)c21 (stereo not drawn) [Example 96] | < 500 | < 500 | – | –
2 | CCCC1(CC(=O)O)OCCc2c1[nH]c1c(C)c(OC[C@@H]3CCC(=O)N3)cc(C#N)c21 (stereo partly drawn) [Example 97] | < 500 | < 500 | – | –
3 | CCCC1(CC(=O)O)OCCc2c1[nH]c1c(C)c(OCC(C)=O)cc(C#N)c21 (stereo not drawn) [Example 98] | 500 to 5000 | < 500 | – | –
4 | CCCC1(CC(=O)O)OCCc2c1[nH]c1c(C)c(OCC(C)=NOC)cc(C#N)c21 (stereo not drawn) [Example 100] | < 500 | < 500 | – | –
5 | CCCC1(CC(=O)O)OCCc2c1[nH]c1c(C)c(OC[C@H]3CCC(=O)N3)cc(C#N)c21 (stereo partly drawn) [Example 101] | < 500 | < 500 | – | –
6 | CCCC1(CC(=O)O)OCCc2c1[nH]c1c(C)c(OCC(C)O)cc(C#N)c21 (stereo not drawn) [Example 102] | < 500 | < 500 | – | –
7 | CCCC1(CC(=O)O)OCCc2c1[nH]c1c(C)c(OCC(=O)NC)cc(C#N)c21 (stereo not drawn) [Example 103] | < 500 | < 500 | – | –
8 | CCCC1(CC(=O)O)OCCc2c1[nH]c1c(C)c(OCC(C)=NOCC)cc(C#N)c21 (stereo not drawn) [Example 104] | < 500 | < 500 | – | –
9 | CCCC1(CC(=O)O)OCCc2c1[nH]c1c(C)c(OCC(C)=NOCC)cc(C#N)c21 (stereo not drawn) [Example 105] | < 500 | – | < 500 | –
10 | CCCC1(CC(=O)O)OCCc2c1[nH]c1c(C)c(OCC3CCSCC3)cc(C#N)c21 (stereo not drawn) [Example 106] | < 500 | < 500 | – | –
11 | CCCC1(CC(=O)O)OCCc2c1[nH]c1c(C)c(OCC3CCS(=O)(=O)CC3)cc(C#N)c21 (stereo not drawn) [Example 107] | < 500 | < 500 | – | –
12 | CCCC1(CC(=O)O)OCCc2c1[nH]c1c(C)c(OCC3CCOCC3)cc(C#N)c21 (stereo not drawn) [Example 108] | < 500 | – | – | < 500
13 | CCCC1(CC(=O)O)OCCc2c1[nH]c1c(C)c(OCc3cc(C)nc(C)c3)cc(C#N)c21 (stereo not drawn) [Example 109] | < 500 | – | – | < 500
14 | CCCC1(CC(=O)O)OCCc2c1[nH]c1c(C)c(OCc3nccn3C)cc(C#N)c21 (stereo not drawn) [Example 110] | < 500 | < 500 | – | –
15 | CCCC1(CC(=O)O)OCCc2c1[nH]c1c(C)c(OCCOCC)cc(C#N)c21 (stereo not drawn) [Example 111] | < 500 | < 500 | – | –
16 | CCCC1(CC(=O)O)OCCc2c1[nH]c1c(C)c(OCCOC(C)C)cc(C#N)c21 (stereo not drawn) [Example 112] | < 500 | < 500 | – | –
17 | CCCC1(CC(=O)O)OCCc2c1[nH]c1c(C)c(OCOC)cc(C#N)c21 (stereo not drawn) [Example 113] | < 500 | < 500 | – | –
18 | CCCC1(CC(=O)O)OCCc2c1[nH]c1c(C)c(OCCN(C)Cc3ccccc3)cc(C#N)c21 (stereo not drawn) [Example 114] | < 500 | < 500 | – | –
19 | CCCC1(CC(=O)O)OCCc2c1[nH]c1c(C)c(OCCOCCOC)cc(C#N)c21 (stereo not drawn) [Example 115] | < 500 | – | – | < 500
20 | CCCC1(CC(=O)O)OCCc2c1[nH]c1c(C)c(OCc3nnnn3C)cc(C#N)c21 (stereo not drawn) [Example 116] | < 500 | < 500 | – | –
21 | CCCC1(CC(=O)O)OCCc2c1[nH]c1c(C)c(OCCOCc3ccccc3)cc(C#N)c21 (stereo not drawn) [Example 117] | < 500 | < 500 | – | –
22 | CCC[C@]1(CC(=O)O)OCCc2c1[nH]c1c(C)c(OCCOCC)cc(C#N)c21 [Example 118] | < 500 | < 500 | – | –
23 | CCCC1(CC(=O)O)OCCc2c1[nH]c1c(C)c(OCCCOC)cc(C#N)c21 (stereo not drawn) [Example 119] | < 500 | < 500 | – | –
24 | CCCC1(CC(=O)O)OCCc2c1[nH]c1c(C)c(OCCOCC3CC3)cc(C#N)c21 (stereo not drawn) [Example 120] | < 500 | – | – | < 500

Row | Compound | IC50 [1] [nM] | IC50 [2] [nM] | IC50 ([2]; read-out: BB7 IC50, BB7 (Con1) NS5B) [nM] | IC50 [2, 3] [nM]
25 | CCCC1(CC(=O)O)OCCc2c1[nH]c1c(C)c(OCC(C)OC)cc(C#N)c21 (stereo not drawn) [Example 121] | < 500 | < 500 | – | –
26 | CCCC1(CC(=O)O)OCCc2c1[nH]c1c(C)c(OCC3CCN(S(C)(=O)=O)CC3)cc(C#N)c21 (stereo not drawn) [Example 122] | < 500 | < 500 | – | –
27 | CCCC1(CC(=O)O)OCCc2c1[nH]c1c(C)c(OCC3CN(S(C)(=O)=O)C3)cc(C#N)c21 (stereo not drawn) [Example 123] | < 500 | < 500 | – | –
28 | CCCC1(CC(=O)O)OCCc2c1[nH]c1c(C)c(OCc3ccon3)cc(C#N)c21 (stereo not drawn) [Example 124] | < 500 | < 500 | – | –
29 | CCC[C@]1(CC(=O)O)OCCc2c1[nH]c1c(C)c(OCc3conc3C)cc(C#N)c21 [Example 125] | < 500 | < 500 | – | –
30 | CCCC1(CC(=O)O)OCCc2c1[nH]c1c(C)c(OCc3cc(C(F)(F)F)n(C)n3)cc(C#N)c21 (stereo not drawn) [Example 126] | < 500 | < 500 | – | –
31 | CCCC1(CC(=O)O)OCCc2c1[nH]c1c(C)c(OCc3cc(C4CC4)on3)cc(C#N)c21 (stereo not drawn) [Example 127] | < 500 | – | – | < 500
32 | CCCC1(CC(=O)O)OCCc2c1[nH]c1c(C)c(OCc3cc(C)[nH]n3)cc(C#N)c21 (stereo not drawn) [Example 128] | < 500 | < 500 | – | –
33 | CCCC1(CC(=O)O)OCCc2c1[nH]c1c(C)c(OCc3cc(C(F)(F)F)n[nH]3)cc(C#N)c21 (stereo not drawn) [Example 129] | < 500 | – | – | < 500
34 | CCCC1(CC(=O)O)OCCc2c1[nH]c1c(C)c(OCc3cc(C4CC4)n(C)n3)cc(C#N)c21 (stereo not drawn) [Example 130] | < 500 | < 500 | – | –
35 | CCCC1(CC(=O)O)OCCc2c1[nH]c1c(C)c(OCc3nsc(N(CC)CC)n3)cc(C#N)c21 (stereo not drawn) [Example 132] | < 500 | < 500 | – | –
36 | CCCC1(CC(=O)O)OCCc2c1[nH]c1c(C)c(OCc3nnc(C)s3)cc(C#N)c21 (stereo not drawn) [Example 133] | < 500 | < 500 | – | –
37 | CCCC1(CC(=O)O)OCCc2c1[nH]c1c(C)c(OCc3nsc(OCC)n3)cc(C#N)c21 (stereo not drawn) [Example 134] | < 500 | – | – | < 500
38 | CCCC1(CC(=O)O)OCCc2c1[nH]c1c(C)c(OCCCc3cc(C)on3)cc(C#N)c21 (stereo not drawn) [Example 135] | < 500 | < 500 | – | –
39 | CCCC1(CC(=O)O)OCCc2c1[nH]c1c(C)c(OCc3nsc(N(C)C)n3)cc(C#N)c21 (stereo not drawn) [Example 136] | < 500 | – | – | < 500
40 | CCCC1(CC(=O)O)OCCc2c1[nH]c1c(C)c(OCc3ccn(CC)n3)cc(C#N)c21 (stereo not drawn) [Example 137] | < 500 | < 500 | – | –
41 | CCCC1(CC(=O)O)OCCc2c1[nH]c1c(C)c(OCc3cc(CC)n(CC)n3)cc(C#N)c21 (stereo not drawn) [Example 138] | < 500 | – | – | < 500
42 | CCCC1(CC(=O)O)OCCc2c1[nH]c1c(C)c(OCc3cc(CC)n(C)n3)cc(C#N)c21 (stereo not drawn) [Example 139] | < 500 | < 500 | – | –
43 | CCCC1(CC(=O)O)OCCc2c1[nH]c1c(C)c(OCc3cc(C)n(CC)n3)cc(C#N)c21 (stereo not drawn) [Example 140] | < 500 | < 500 | – | –
44 | CCCC1(CC(=O)O)OCCc2c1[nH]c1c(C)c(OC[C@@H](C)OC)cc(C#N)c21 (stereo partly drawn) [Example 141] | < 500 | < 500 | – | –
45 | CCCC1(CC(=O)O)OCCc2c1[nH]c1c(C)c(OCCCSC)cc(C#N)c21 (stereo not drawn) [Example 142] | < 500 | < 500 | – | –
46 | CCCC1(CC(=O)O)OCCc2c1[nH]c1c(C)c(OCCCS(C)(=O)=O)cc(C#N)c21 (stereo not drawn) [Example 143] | < 500 | – | – | < 500
47 | (7-Benzyloxymethyl-5-cyano-8-methyl-1-propyl-1,3,4,9-tetrahydro-pyrano[3,4-b]indol-1-yl)-acetic acid [Example 15] | < 500 | – | – | < 500
48 | [5-Cyano-8-methyl-1-propyl-7-(tetrahydro-pyran-4-ylmethoxymethyl)-1,3,4,9-tetrahydro-pyrano[3,4-b]indol-1-yl]-acetic acid [Example 12] | 500 to 5000 | – | – | 500 to 5000
